Data set [1] relates to acid secretion of the perfused rat stomach stimulated by pentagastrin. Put plainly: Secretion-inhibiting action on perfused rat stomach (pentagastrin-stimulated acid secretion). It counts as in vivo. Particulars: anesthetized CD rats, dose 1 μmol/kg i.v. An excerpt:
Testing of the Secretion-inhibiting Action on Perfused Rat Stomach
In table A below, the influence of the compounds according to the invention after intravenous administration is shown on the acid secretion of the perfused rat stomach stimulated by pentagastrin.
The abdomen of anesthetized rats (CD rats, female, 200-250 g; 1.5 g/kg of i.m. urethane) was opened after tracheotomy by a median upper abdominal incision and a PVC catheter was fixed transorally in the esophagus and a further one via the pylorus such that the ends of the tubing just still projected into the gastric lumen. The catheter leading from the pylorus led outwards via a side opening in the right abdominal wall.
After thorough rinsing (about 50-100 ml), a continuous flow of warm physiological NaCl solution (0.5 ml/min, pH 6.8-6.9; Braun-Unita I) was continuously passed through the stomach at 37° C. The pH in the effluent, in each case collected at an interval of 15 minutes, was determined (pH meter 632, glass electrode EA 147; φ=5 mm, Metrohm) and the secreted HCl was determined by titration with a freshly prepared 0.01 N NaOH solution to pH 7 (Dosimat 665 Metrohm).
Gastric secretion was stimulated by continuous infusion of 1 μg/kg (=1.65 ml/h) of i.v. pentagastrin (left femoral vein) about 30 min after the end of the operation (i.e. after determination of 2 preliminary fractions). The substances to be tested were administered intravenously in 1 ml/kg of fluid volume 60 min after the start of the pentagastrin continuous infusion.
The body temperature of the animals was kept at a constant 37.8-38° C. by means of infrared irradiation and heating pads (automatic, step-free control via a rectal temperature sensor).

A word on the melting point: it is the temperature of the solid-liquid transition.

Take `CO[C@H]1c2ccn3c(C)c(C)nc3c2N[C@H](c2ccccc2)[C@]1(C)O` [Example 7, (7S,8S,9R)-2,3,8-Trimethyl-7-methoxy-8-hydroxy-9-phenyl-7,8,9,10-tetrahydroimidazo[1,2-h]-[1,7]naphthyridine]: the melting point came out at 190 °C. For the compound `Cc1nc2c3c(ccn2c1C)[C@@](C)(O)[C@H](O)[C@@H](c1ccccc1)O3` [Example 12, (7R,8R,9R)-2,3,7-Trimethyl-7,8-dihydroxy-9-phenyl-7H-8,9-dihydropyrano[2,3-c]imidazo[1,2-a]-pyridine], in data set [1], the “Inhibition of acid secretion” value came to 100%. As to `Cc1nc2c3c(ccn2c1C)C(=O)[C@](O)(Cc1ccccc1)[C@@H](c1ccccc1)N3` [Example 3, (8S,9R)-2,3-Dimethyl-8-benzyl-8-hydroxy-9-phenyl-7,8,9,10-tetrahydroimidazo[1,2-h][1,7]naphthyridin-7-one], the melting point lay within 248 to 251 °C. In the case of `Cc1nc2c3c(ccn2c1C)[C@H](O)[C@](O)(Cc1ccccc1)[C@@H](c1ccccc1)N3` [Example 4, (7S,8S,9R)-2,3-Dimethyl-8-benzyl-7,8-dihydroxy-9-phenyl-7,8,9,10-tetrahydroimidazo[1,2-h][1,7]-naphthyridine], the melting point lay within 115 to 122 °C. `Cc1nc2c3c(ccn2c1C)[C@@](C)(O)[C@H](O)[C@@H](c1ccccc1)N3` [Example 8, (7R,8R,9R)-2,3,7-Trimethyl-7,8-dihydroxy-9-phenyl-7,8,9,10-tetrahydroimidazo[1,2-h][1,7]-naphthyridine] gave a melting point of 137 to 138 °C. Besides, the “Inhibition of acid secretion” value in data set [1] stood at 100%. Take `Cc1nc2c3c(ccn2c1C)[C@@H](O)[C@@](C)(O)[C@@H](c1ccccc1)N3` [Example 2, (7R,8S,9R)-2,3,8-Trimethyl-7,8-dihydroxy-9-phenyl-7,8,9,10-tetrahydroimidazo[1,2-h][1,7]naphthyridine]: the melting point came out at 180 °C. Also, the “Inhibition of acid secretion” value in data set [1] was found to be 100%. The compound `Cc1nc2c3c(ccn2c1C)C(=O)[C@@](C)(O)[C@@H](c1ccccc1)N3` [Example 1, (8S,9R)-2,3,8-Trimethyl-8-hydroxy-9-phenyl-7,8,9,10-tetrahydroimidazo[1,2-h][1,7]naphthyridin-7-one] registered a melting point of 240 °C.

As to `C=C1c2ccn3c(C)c(C)nc3c2N[C@H](c2ccccc2)[C@H]1O` [Example 10, (8S,9R)-2,3-Dimethyl-8-hydroxy-7-methylidene-9-phenyl-7,8,9,10-tetrahydroimidazo[1,2-h][1,7]-naphthyridine], the melting point lay within 199 to 202 °C. In data set [1], the “Inhibition of acid secretion” value was 100%.

The record behind these values is patent publication US6916825B2, “Alkylated imidazopyridine derivatives” (Altana Pharma AG, priority 2000, dated 2005).
